{
  "source": "paper PMC10895676",
  "about": "“Antiviral Activity of Lipophilic Nucleoside Tetraphosphate Compounds” (Journal of Medicinal Chemistry, 2024)",
  "data": [
    {"test_system": "pig liver esterase (PLE)", "test": "Enzymatic hydrolysis with pig liver esterase (PLE)", "assay_type": "in vitro ADME", "details": "pig liver esterase in phosphate buffer, PLE in phosphate buffer pH 7.3, 37 °C, read-out: PLE t1/2 (converted)", "experimental": "To confirm the enzymatic hydrolysis process, TetraPPPPro-nucleotides 4–9 bearing different kinds of lipophilic groups attached to the δ-phosph(on)ate group were incubated with PLE in phosphate buffer.\nThen, 833 μL of 50 mM phosphate buffer (pH 7.3) and 125 μL of DMSO were added to the 6.0 mM hydrolysis solutions. The reaction was started by addition of 62.5 μL of PLE in phosphate buffer (100 units/mL), and the mixture was incubated at 800 rpm at 37 °C in a thermomixer. (1). At different times, aliquots (75 μL) were taken and stopped by the addition of […] of MeOH. The mixture was stored in liquid nitrogen. When testing, samples were warmed up to room temperature, and 60 μL of the liquid was directly injected into HPLC analysis. (2). 40 μL for each extraction was stored in liquid nitrogen. When testing, samples were warmed up to room temperature, and 30 μL of the liquid was taken and injected into the analytical RP-18-HPLC instrument. The calculation of t1/2 was performed analogously to that for the chemical hydrolysis studies.", "units": {"half-life at 0.45 mM": "min"}, "values": [
      {"smiles": "CCCCCCCCCCCCCCCCCCP(=O)(O)OP(=O)(O)OP(=O)(O)OP(=O)(O)OC[C@@H]1C=C[C@H](n2cc(C)c(=O)[nH]c2=O)O1", "note": "[compound 24, δ-C-(Alkyl-C18)-d4T4P]", "half-life at 0.45 mM": "> 3000"},
      {"smiles": "CCCCCCCCCCCCCCCCCCP(=O)(OCCCC)OP(=O)(O)OP(=O)(O)OP(=O)(O)OC[C@@H]1C=C[C@H](n2cc(C)c(=O)[nH]c2=O)O1", "note": "(stereo partly shown) [5a, δ-(Alkyl-C4)-δ-C-(alkyl-C18)-d4T4P]", "half-life at 0.45 mM": "> 3000"},
      {"smiles": "CCCCCCCCCCCCCCCCCCOP(=O)(O)OP(=O)(O)OP(=O)(O)OP(=O)(O)OC[C@@H]1C=C[C@H](n2cc(C)c(=O)[nH]c2=O)O1", "note": "[compound 20, δ-(Alkyl-C18)-d4T4P]", "half-life at 0.45 mM": "> 3000"},
      {"smiles": "CCCCCCCCCCCCCCCCCCOP(=O)(OCCCC)OP(=O)(O)OP(=O)(O)OP(=O)(O)OC[C@@H]1C=C[C@H](n2cc(C)c(=O)[nH]c2=O)O1", "note": "(stereo partly shown) [4d, δ-(Alkyl-C4; alkyl-C18)-d4T4P]", "half-life at 0.45 mM": "> 3000"}
    ]}
  ]
}
